Measurements published in ChEMBL document CHEMBL2146459, “Potentiation of ribonuclease cytotoxicity by a poly(amidoamine) dendrimer” (Bioorg Med Chem Lett, 2011).
Calls of active or inactive are those of the source. No cut-off for these calls is given here.

What was measured:
[1] = biological target: T1, Ribonuclease pancreatic (Bos taurus) (UniProt P61823); assay: Induction of bovine RNaseA internalization in human K562 cells assessed as internalization count at 10 uM after 3 hrs by flow cytometry; type: cell-based
T1 sequence (whole entry): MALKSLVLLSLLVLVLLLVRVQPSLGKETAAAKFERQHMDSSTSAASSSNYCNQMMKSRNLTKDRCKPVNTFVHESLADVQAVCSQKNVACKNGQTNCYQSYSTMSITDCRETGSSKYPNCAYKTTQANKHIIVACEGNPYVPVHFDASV

K562 [2] = assay: Potentiation of bovine wild type RNase-A-induced cytotoxicity against human K562 cells assessed as incorporation of [methyl-3H]-thymidine into cellular DNA at 1 to 10 uM after 4 hrs by liquid scintillation counting; type: functional, cell-based
[3] = biological target: T1, Ribonuclease pancreatic (Bos taurus); assay: Effect on bovine RNase A ribonucleolytic activity assessed as kcat/KM ratio of 6-FAM-dArUdAdA-6-TAMRA at 1 uM by fluorescence assay
K562 [4] = assay: Potentiation of bovine RNase-A G88R mutant-induced cytotoxicity against human K562 cells assessed as incorporation of [methyl-3H]-thymidine into cellular DNA at 10 uM after 4 hrs by liquid scintillation counting; type: functional
Ribonuclease pancreatic = biological target: T2, Ribonuclease pancreatic (Bos taurus, UniProt P61823); assay: Inhibition of bovine RNase A interaction to ribonuclease inhibitor protein after 30 mins by competition assay
T2 sequence (P61823 whole entry): T1 sequence (whole entry)

K562 [5] = assay: Potentiation of bovine RNase-A DRNG mutant-induced cytotoxicity against human K562 cells assessed as incorporation of [methyl-3H]-thymidine into cellular DNA at 10 uM after 4 hrs by liquid scintillation counting; type: functional
[6] = biological target: T1, Ribonuclease pancreatic (Bos taurus); assay: Binding affinity to bovine RNase A in PBS assessed as melting temperature at 10 uM after 3 hrs by UV spectroscopy (reference value: 62.7 +/- 0.1 degC)
[7] = biological target: T1, Ribonuclease pancreatic (Bos taurus); assay: Effect on bovine RNase A ribonucleolytic activity assessed as kcat/KM ratio of 6-FAM-dArUdAdA-6-TAMRA at 10 uM by fluorescence assay
[8] = biological target: T1, Ribonuclease pancreatic (Bos taurus); assay: Induction of bovine RNaseA internalization in human K562 cells assessed as internalization count at 1 uM after 3 hrs by flow cytometry; type: cell-based
[9] = biological target: T1, Ribonuclease pancreatic (Bos taurus); assay: Binding affinity to bovine RNase A in PBS buffer assessed as melting temperature at 1 uM after 3 hrs by UV spectroscopy (reference value: 62.7 +/- 0.1 degC)

Activity [1]: inactive
Activity [3]: inactive
Kd (Ribonuclease pancreatic): 3.1 µM
Tm [6]: 63.2 °C
Activity [7]: inactive
Activity [8]: inactive
Tm [9]: 62.8 °C
Compound: NCCNC(=O)CCN(CCNC(=O)CCN(CCNC(=O)CCN(CCC(=O)NCCN(CCC(=O)NCCN(CCC(=O)NCCN)CCC(=O)NCCN)CCC(=O)NCCN(CCC(=O)NCCN)CCC(=O)NCCN)CCN(CCC(=O)NCCN(CCC(=O)NCCN(CCC(=O)NCCN)CCC(=O)NCCN)CCC(=O)NCCN(CCC(=O)NCCN)CCC(=O)NCCN)CCC(=O)NCCN(CCC(=O)NCCN(CCC(=O)NCCN)CCC(=O)NCCN)CCC(=O)NCCN(CCC(=O)NCCN)CCC(=O)NCCN)CCC(=O)NCCN(CCC(=O)NCCN)CCC(=O)NCCN)CCC(=O)NCCN [POLY(AMIDOAMINE)DENDRIMER]
Activity (K562 [2]): inactive
fold change (FC) (K562 [4]): 5
fold change (FC) (K562 [5]): 5
